What was measured:
[1] = Dynamic light scattering size analysis of nanosensors in CAGE; assay type: physicochemical
From the text: (§1) To assess the solubility, stability, and activity of our nanosensors in CAGE, we conjugated a thrombin substrate (–GGfPRSGGG–) to 40 kDa PEG nanoparticles at an 8:1 substrate:nanoparticle ratio. The substrates were flanked by 5‐carboxyfluorescein (5‐FAM) and a Förster resonance energy transfer quencher molecule (CPQ2) in close proximity, such that proteolytic cleavage would result in fluorescence signal (nanoparticle was denoted as TDN‐qFAM, Figure 1A). […] In addition, the colloidal stability of TDN‐qFAM was assessed by the absorption spectrum of TDN‐qFAM in the presence and absence of CAGE after 24 h of room temperature storage (Figure 1C). […]
(§2) The CAGE and TDNs coformulation was prepared by addition of 1 mL of CAGE onto 1 mg of conjugated PEG powder, followed by iterative short mixing and ultrasonication steps until a clear solution was observed. […] Size analysis was performed in dynamic light scattering (ZetaSizer), and absorbance spectra were obtained in Tecan Spectrophotometer. For in vitro cleavage assays, recombinant thrombin (10 × 10^−9 M working concentration) was mixed with TDN‐Q in CAGE (30%) solution (10 × 10^−6 M by peptide), and cleavage was monitored by fluorescence at 535 nm of dequenched 5‐carboxyfluorescein (5‐FAM). […]

[2] = Colloidal stability by absorption spectrum after storage; assay type: physicochemical; details: presence and absence of CAGE; 24 h room temperature storage; absorbance spectrum
From the text: as §1, §2

recombinant thrombin = recombinant thrombin (Homo sapiens, UniProt P00734); assay: Fluorescence dequenching cleavage assay with recombinant thrombin; assay type: biochemical; details: fluorescence at 535 nm, triplicate
From the text: To assess the solubility, stability, and activity of our nanosensors in CAGE, we conjugated a thrombin substrate (–GGfPRSGGG–) to 40 kDa PEG nanoparticles at an 8:1 substrate:nanoparticle ratio. The substrates were flanked by 5‐carboxyfluorescein (5‐FAM) and a Förster resonance energy transfer quencher molecule (CPQ2) in close proximity, such that proteolytic cleavage would result in fluorescence signal (nanoparticle was denoted as TDN‐qFAM, Figure 1A). […] In addition, the colloidal stability of TDN‐qFAM was assessed by the absorption spectrum of TDN‐qFAM in the presence and absence of CAGE after 24 h of room temperature storage (Figure 1C). […] We then investigated whether the presence of CAGE components influenced the stability of the peptide substrate and the activity of thrombin against TDN‐qFAM. […] However, upon stepwise dilution of CAGE with phosphate buffered saline (PBS), the functionality of TDN‐qFAM against thrombin cleavage was improved.
Figure 1 A) Chemical components of CAGE ionic liquid and schematic representation of TDN‐qFAM nanoparticles with thrombin substrate sequence. B) Dynamic light scattering and C) absorbance spectra of TDN‐qFAM in PBS and CAGE solutions. […]) Fluorescence dequenching experiment for enzyme cleavage kinetics in the presence (empty circles) and absence (full circles) of recombinant thrombin in the TDN‐qFAM/CAGE solution. […]

endogenous thrombin = biological target: T1, endogenous thrombin (Mus musculus, UniProt P19221); assay: Cleavage kinetics in mouse serum at different CAGE concentrations; assay type: biochemical; details: 37 °C, fluorescence
T1 construct: The cleavage study was carried out in mouse serum obtained from Sigma Aldrich; tissue Sigma Aldrich; host or cells: mouse serum

[3] = Ex vivo skin penetration, Franz diffusion cell, porcine skin; assay type: in vitro ADME; details: 300 µL, 37 °C, 24 h
Method: Porcine skin samples were placed on Franz diffusion cells, and the diffusion of TDN‐qFAM nanoparticles was tested with different concentrations of CAGE present in the formulation.
Figure 5 A) Confocal microscopy image of a paraffin‐embedded porcine skin section after 24 h of topical administration of TDN‐qFAM in 100% CAGE. Left: bright field; right: fluorescence image. Scale bar: 200 µm. B) Quantitative results of nanoparticles found in ex vivo porcine skin layers using Franz diffusion cell set‐up with different CAGE concentrations. (mean ± s.d., n = 3 independent skin slices).
The skin penetration studies were undertaken using porcine skin in Franz diffusion cells, as described previously in full.^[ [23] ^] Briefly, thawed porcine skin (CBSET, Lexington MA) or mouse skin removed from Swiss Webster strain was placed in a diffusion cell with the stratum corneum facing upwards. The acceptor component of the cell was filled with PBS and equipped with a magnetic stirrer bar. 300 µL was placed on top of the skin, ensuring full coverage. The diffusion cell was placed on a stirrer plate at 37 °C for 24 h, at which point the skin was removed and the surface washed gently with PBS. For quantitative analysis, the stratum corneum was removed by tape stripping (ten layers), the epidermis was separated from the dermis with a scalpel, and a 4 mm punch was used thrice to remove a third of the dermis (by area). The tissue was then placed into a 50% methanol/PBS mixture, and left to shake overnight at RT to extract the drug. 100 µL of the extracted fluid was then placed into a black Corning 96‐well plate and analyzed using a i3 SpectraMax plate reader, with excitation wavelength of 750 nm and an emission wavelength of 775 nm. For the confocal microscopy, the skin was affixed to a cryostat stage with fixing compound and 20 µm slices were taken using a cryostat (Leica CM1950, Leica, Germany). The slices of skin were placed on negatively charged slides (Fisher Scientific, Pittsburgh, PA, USA) and imaged using a confocal microscope (Upright Zeiss LSM 710 NLO) with a 10× air objective.

[4] = Ex vivo skin penetration, Franz diffusion cell, mouse skin; assay type: in vitro ADME, mouse (Swiss Webster); details: 37 °C, 24 h, fluorescence, n = 3 skin samples
Method: Next, we validated the skin penetration of the nanosensors by coformulating unquenched, 5‐FAM labelled, thrombin substrate‐conjugated PEG nanoparticles (TDN‐FAM, Table S1, Supporting Information) and 30% CAGE solution. Ex vivo conditions were established by incubating TDN‐FAM/CAGE with mouse skin samples that were stabilized in a Franz diffusion cell set‐up.^[ [14], [15] ^] Three main layers of skin samples, namely stratum corneum, viable epidermis, and dermis, as well as the PBS solution underneath the skin (acceptor solution), were collected, and nanosensor concentration was quantified via fluorescence spectroscopy.
Figure 2 A) Quantification of TDN‐FAM extracted from different layers of mouse skin via fluorescence readout. SC: Stratum Corneum. […]
The skin penetration studies were undertaken using porcine skin in Franz diffusion cells, as described previously in full.^[ [23] ^] […] For quantitative analysis, the stratum corneum was removed by tape stripping (ten layers), the epidermis was separated from the dermis with a scalpel, and a 4 mm punch was used thrice to remove a third of the dermis (by area). […] 100 µL of the extracted fluid was then placed into a black Corning 96‐well plate and analyzed using a i3 SpectraMax plate reader, with excitation wavelength of 750 nm and an emission wavelength of 775 nm. […]

[5] = test system: acute pulmonary embolism mouse model; assay: Urinary reporter detection of thrombosis in thromboplastin-injected acute pulmonary embolism mouse model; assay type: in vivo, Swiss Webster mice; details: for ROC AUC: n = 5 per group
From the text: Next, we sought to assess whether transdermally delivered nanosensors could detect disease in this model. Thrombin substrate flanked by near‐IR dye, Cy7, was conjugated to PEG nanoparticles (TDN‐Cy7), were solvated in 30% CAGE and administered topically to Swiss Webster mice. The TDN‐Cy7 nanoparticles were designed such that cleavage of the thrombin substrate would liberate a renally clearable fragment with Cy7 that could enable quantification in the urine by fluorescence. Concomitant quantification of plasma‐borne TDN‐Cy7 was performed to normalize the urine signal in order to mitigate the mouse‐to‐mouse variation that may arise due to the heterogeneous skin conditions present across individual subjects. Thromboplastin was intravenously administered to mice at different time points after topical administration of CAGE/TDN solution on the dorsal skin. Urine collection was performed 30 min after thromboplastin injection, and fluorescence measurement was carried out to detect reporter peptides in the urine. […] These finding indicate that topical administration with CAGE achieves circulatory delivery of nanosensors that enable sustained, noninvasive monitoring of thromboembolism in vivo as opposed to bolus injection into the blood.
Figure 4 A) Urinary reporter concentrations relative to plasma TDN‐Cy7 concentrations for thromboplastin‐injected (Thrombosis) and healthy control mice at different time points after nanosensor administration (mean ± s.d., n = 5 mice per group; *P < 0.05 and **P < 0.01, two‐tailed Mann–Whitney's […]). […] C) Urinary reporter concentrations in healthy versus thrombosis mice 6 h after intravenous injection of TDN‐Cy7 (mean ± s.d., n = 5 mice per group; ns: not significant). D) ROC curve calculated from data at panel (C) (AUC = 0.60).
For urine detection of thrombosis, 10 µL of CAGE (30%) containing TDN‐Cy7 nanosensor (4nmoles by peptide) was administered onto previously shaved dorsal skin of Swiss Webster mice, which were subsequently returned to their cages. At different time points postadministration, thromboplastin (0.75 µL g^−1 bodyweight of 4 mg mL^−1 stock in PBS) was injected intravenously, and both urine and blood (retroorbital draw) were collected 30 min p.i. Plasma is collected similar to the pharmacokinetic study and both urine and plasma were stored at −80 °C. Cleaved peptide reporters in the urine was quantified with fluorescence of Cy7 (Excitation 750 nm, emission 790 nm). Plasma levels of TDN‐Cy7 were similarly quantified using fluorescence and used for normalizing the urine signals.

5FAM-GGfPRSGGGK(CPQ2)-(EG)2-C-[8armPEG] [TDN‐qFAM, Quenched thrombosis detecting nanosensors: 5-FAM/CPQ2-flanked thrombin substrate peptide conjugated to 40 kDa 8-arm PEG nanoparticles]
aggregation associated size increase (>100 nm), dynamic light scattering ([1]; 30% CAGE solution vs PBS, ZetaSizer): did not exhibit any significant aggregation associated size increase
mean hydrodynamic size when dissolved in CAGE ([1]; CAGE vs PBS, dynamic light scattering): slight increase
absorption maximum at 495 nm (5-FAM) after storage [2]: virtually unchanged
cleavage in the absence of recombinant enzyme (recombinant thrombin; 30% CAGE alone, no thrombin): no cleavage was observed
cleavage (fluorescence dequenching) with recombinant thrombin (recombinant thrombin; 30% CAGE, thrombin 10 × 10^-9 M, nanosensor 10 × 10^-6 M by peptide): clear cleavage profile with gradual increase in fluorescence intensity
endogenous thrombin activity against nanosensor in mouse serum (endogenous thrombin; 30% CAGE, n = 3 measurements): partially hindered
functionality against thrombin cleavage in mouse serum on dilution of CAGE (endogenous thrombin; stepwise dilution of CAGE with PBS (5%, 1%, 0.1%, 0%), n = 3): improved
penetration into porcine skin ([3]; 30% CAGE, fluorescence, n = 3 skin slices): slight increase in penetration
amount transported into porcine skin ([3]; in PBS, acceptor PBS, fluorescence): negligible amount
penetration through porcine skin ([3]; undiluted (100%) CAGE, fluorescence and confocal microscopy, n = 3 skin slices): dramatically improved penetration

5FAM-GGfPRSGGGK-(EG)2-C-[8armPEG] [TDN‐FAM, Unquenched 5-carboxyfluorescein conjugated thrombosis detecting nanosensors on 8-arm PEG]
signal in dermis layer and acceptor solution ([4]; 30% CAGE vs PBS, 300 µL, acceptor PBS): markedly increased signal
recovery from dermis and acceptor layers ([4]; 50% CAGE vs 30% CAGE): even higher recovery

Cy7-GGfPRSGGGK-(EG)2-C-[8armPEG] [TDN‐Cy7, Unquenched Cy7 conjugated thrombosis detecting nanosensors on 8-arm PEG]
ROC AUC ([5]; 6 h after intravenous injection): 0.60
amount of reporter in urine vs healthy background ([5]; intravenous injection 6 h before thromboplastin, n = 5): not significantly different from healthy background
urinary reporter signal, diseased vs healthy mice ([5]; topical 30% CAGE, 4 nmoles by peptide, thromboplastin 6 h after administration, urine 30 min later, normalised to plasma, n = 5, P = 0.0079): significantly increased
ROC AUC ([5]; topical 30% CAGE, 6 h after nanosensor administration): 1.00
ROC AUC ([5]; topical 30% CAGE, 12 h after nanosensor administration): 1.00
ROC AUC ([5]; topical 30% CAGE, 24 h after nanosensor administration): 0.96
ROC AUC ([5]; topical 30% CAGE, 48 h after nanosensor administration): 0.84
ROC AUC ([5]; topical 30% CAGE, 72 h after nanosensor administration): 0.72
diagnostic power of urinary reporter ([5]; topical 30% CAGE, thrombosis induced at 12 h, n = 5): retained their diagnostic power
diagnostic power of urinary reporter ([5]; topical 30% CAGE, thrombosis induced at 24 hours, n = 5): retained their diagnostic power
discrimination of diseased from healthy mice ([5]; topical 30% CAGE, thrombosis induced at 48 hours, n = 5): could not discriminate diseased from healthy mice
discrimination of diseased from healthy mice ([5]; topical 30% CAGE, thrombosis induced at 72 hours, n = 5): could not discriminate diseased from healthy mice

From paper PMC11468213, “Ionic Liquid‐Mediated Transdermal Delivery of Thrombosis‐Detecting Nanosensors” (Advanced Healthcare Materials, 2022)
